Experimental data as given in patent US11478488B2, “Co-crystals of tramadol and coxibs” (ESTEVE PHARMACEUTICALS, S.A., priority 2009, dated 2022).
Read-outs that look alike come from different tables or passages of the source.

Legend:
[1] = test system: incision-induced thermal hyperalgesia in the incised rat hind paw; assay: Thermal hyperalgesia (plantar test, Hargreaves) in paw incision postoperative pain model; assay type: in vivo, Wistar rats; details: for ED50: read-out: ED50 thermal hyperalgesia (after sigmoidal adjustment); for Efficacy on thermal hyperalgesia: rat paw incision, intraperitoneal dose response, FIG. 8
Method: (§1) Male, Wistar rats (120-160 g, Harlan, Italy) were housed in a climate-controlled room for at least 5 days prior to testing.
(§2) The dosing volume was 10 ml/kg. The antihyperalgesic or antiallodynic response of the animal was subsequently evaluated 60 min after drug administration.
(§3) Rats were anaesthetized with 3% isofluorane for veterinary use, employing an Ohmeda vaporizer and an anaesthesia chamber. Anaesthesia was kept during the surgical operation by a tube which directs the isoflurane vapours to the animal's snout. Once the rats were anaesthetised, they were laid down in a prone position and their right hindpaws were cleaned out with alcohol. Then, a 1 cm longitudinal incision was made with a number 23 scalpel, through skin and fascia of the plantar aspect of the paw, starting 0.5 cm from the proximal edge of the heel and extending toward the toes. Therefore, both superficial (skin) and deep (muscle) tissues and nerves were injured. Finally, the skin of the paw was stitched with a suturing stitch with breaded silk (3.0) and the wound was cleaned out with povidone.
(§4) The drugs were tested 4 hours after the surgery (plantar incision); 60 minutes after the administration of the product, two behavioural endpoints were evaluated: thermal hypersensitivity or hyperalgesia, and mechanical hypersensitivity or allodynia.
Animals were placed in the methacrylate cages of said apparatus, having a crystal floor. The acclimation period within the cages was about 10 minutes. The thermal stimulus came from a lamp moving below the crystal floor and which was applied to both paws, with a minimum interval of 1 minute between both stimulations in order to avoid learning behaviours. The rat is able to withdraw the paw freely when it feels discomfort (pain) produced by the heat coming from the lamp; then it is switched off and the latency time to the withdrawal response is recorded in seconds. In order to avoid hurting the animal's paw, the lamp was automatically switched off after 32 seconds.

[2] = test system: incision-induced mechanical allodynia in the incised rat hind paw; assay: Mechanical allodynia (von Frey filaments) in paw incision postoperative pain model; assay type: in vivo, Wistar rats; details: ip
Method: as §1, §2, §3, §4
Mechanical allodynia was tested using von Frey filaments. Animals were placed in methacrylate cylinders on an elevated surface, with metallic mesh floor perforated in order to apply the filaments. After an acclimation period of about 30 minutes within the cylinders, both hindpaws were stimulated (the injured and the non-injured paw, serving the latter as control), starting with the lowest force filament (0.4 g) and reaching up to a 15 g filament. The animal's response to pain was manifested by the withdrawal of the paw as a consequence of the painful stimulus caused by a filament. The pressure (force in grams) threshold eliciting the withdrawal of the paw was recorded.
Where it is established that Zmix<Zadd for a specific fixed-ratio, then that composition has a synergistic anti-hyperalgesic effect. Both ED50 mix and ED50 add values are random variables. ED50 mix is determined from the dose-response curve for a specific fixed-ratio of the components; ED50 add is calculated from the ED50 values for the individual drugs. Zmix is then compared to Zadd via a Student's t-test.

[3] = test system: motor behaviour of monoarthritic rats (carrageenan-induced gait changes); assay: Pain-induced gait adaptation (CBMS) in carrageenan-induced acute monoarthritic model; details: intraperitoneal 4.5 h after carrageenan, measured 30 min after administration; co-crystal 20 mg/kg, single drugs at corresponding dose
Method: Movement-evoked pain was evaluated by a computerized behavioral monitoring system (CBMS).
The rat carrageenan model utilizes inflammation-associated pain following injection of the knee joint (monoarthritic model). […] The CBMS was used to assess gait related changes 5 hours after carrageenan injection and 30 min after drugs administration. […] Mechanical allodynia was measured with von Frey filaments 15 minutes after CBMS gait analysis.
Food and water were available ad libitum up to test time.
The dosing volume was 2 ml/kg. The drug response of the animal was subsequently evaluated 30 and 45 min after drug administration (for CBMS and von Frey respectively).
Joint inflammation was induced by carrageenan (Sigma Chemical, St. Louis, Mo.) injected percutaneously using a 30-gauge needle through the infrapatellar ligament into the right knee joint cavity (300 μg, 40 μl) with the animal under brief isoflurane (IsoFlo®, Abbott-Esteve, Barcelona, Spain) anaesthesia (3%).
Detailed analysis of gait was performed on walking rats using the CBMS method. Briefly, light from a fluorescent tube is sent through a glass plate. Light rays are completely reflected internally. As soon as anything, e.g. a rat's paw, is in contact with the glass surface, light is reflected downwards. It results in a sharp image of a bright paw print. The whole run is recorded via a camera placed under the glass plate. […]

[4] = intraperitoneal single dose, 4 h after surgery, evaluated 60 min after administration, read-out: ED50 mechanical allodynia (after sigmoidal adjustment)
[5] = intraperitoneal, separate ED50 of single drugs for isobologram analysis, read-out: ED50 on mechanical allodynia as used in the isobologram (FIG. 7)

Row | Compound | ED50 ([1]; Rattus norvegicus, ip) [mg/kg] | Efficacy on thermal hyperalgesia [1] | ED50 [2, 4] [mg/kg] | ED50 [2, 5] [mg/kg] | Effect on carrageenan-induced gait changes (CBMS) [3] | Emax ([1]; Rattus norvegicus, ip, 1 h, read-out: Emax thermal hyperalgesia, rat paw incision, intraperitoneal, 60 min after administration) [%]
1 | COc1cccc(C2(O)CCCCC2CN(C)C)c1 (racemic) [Tramadol, 2-(dimethylaminomethyl)-1-(3-methoxyphenyl)cyclohexanol] | 8.3 | full efficacy | 5.41 | 5.28 | inhibited | –
2 | Cc1ccc(-c2cc(C(F)(F)F)nn2-c2ccc(S(N)(=O)=O)cc2)cc1 [Celecoxib, 4-[5-(4-methylphenyl)-3-(trifluoromethyl)-pyrazol-1-yl]benzenesulfonamide] | 2.35 | only a partial response | 3.03 | 3.01 | inhibited | 45
